In series [1] the test system is HCT-116. The series is described as follows: Cytotoxicity against human HCT116 cells assessed as reduction in cell viability after 48 hrs by MTT assay. In kind it is functional, cell-based. The note with it: HCT-116, 48 h. On the technique in general: Formazan colour is commonly taken as a measure of viable cells.
The next series has as its target T1, Aurora kinase A (Homo sapiens, UniProt O14965).
T1 sequence (O14965 whole entry): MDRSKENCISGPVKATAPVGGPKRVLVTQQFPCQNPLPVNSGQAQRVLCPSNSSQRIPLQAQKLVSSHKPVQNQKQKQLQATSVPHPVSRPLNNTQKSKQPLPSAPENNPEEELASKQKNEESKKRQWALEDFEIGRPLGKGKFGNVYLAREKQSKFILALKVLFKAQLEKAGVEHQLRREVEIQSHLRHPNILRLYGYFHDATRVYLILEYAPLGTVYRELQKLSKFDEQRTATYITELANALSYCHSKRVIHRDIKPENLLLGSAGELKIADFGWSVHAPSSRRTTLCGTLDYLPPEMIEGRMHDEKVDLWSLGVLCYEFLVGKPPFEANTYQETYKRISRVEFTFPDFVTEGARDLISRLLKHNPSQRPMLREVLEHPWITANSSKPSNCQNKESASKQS
The series is described as follows: Inhibition of recombinant Aurora A (unknown origin) using TAMRA-PKAtide as substrate after 30 mins by fluorescence polarization assay. A general note: In fluorescence polarisation assays a small probe gives low polarisation when free and higher when bound to something large.

In a further series the target is Aurora kinase B (Homo sapiens, UniProt Q96GD4). The series is described as follows: Inhibition of recombinant Aurora B (unknown origin) using TAMRA-PKAtide as substrate after 1 hr by fluorescence polarization assay.
Series [2] has as its system HCT-116. The series is described as follows: Inhibition of cytokinesis in human HCT116 cells at 1 uM after 24 hrs by propidium iodide/RNase staining-based flow cytometric analysis. It is filed as functional, cell-based. Background: A flow cytometer gives signals particle by particle.
Series [3] can be described thus: Solubility of the compound in phosphate buffer of pH 7.4 after 24 hrs by RP-HPLC analysis. In kind it is physicochemical. The note with it: phosphate buffer, pH 7.4.
Series [4] is described as follows: Solubility of the compound in phosphate buffer of pH 2 after 24 hrs by RP-HPLC analysis. In kind it is physicochemical.
The subject of series [5] is HCT-116. The series is described as follows: Synergistic cytotoxicity against human HCT116 cells assessed as reduction in cell viability by measuring combination index at 1:1 compound to dasatinib ratio after 48 hrs by MTT assay. In kind it is functional.
Series [6] has as its system HCT-116. The series is described as follows: Synergistic cytotoxicity against human HCT116 cells assessed as reduction in cell viability by measuring combination index at 1:1 compound to crizotinib ratio after 48 hrs by MTT assay. In kind it is functional.
The subject of series [7] is HCT-116. The series is described as follows: Synergistic cytotoxicity against human HCT116 cells assessed as reduction in cell viability by measuring combination index at 1:1 compound to lonafarnib ratio after 48 hrs by MTT assay. In kind it is functional.
The next series deals with HT-29. The series is described as follows: Synergistic cytotoxicity against human HT-29 cells assessed as reduction in cell viability by measuring combination index at 1:1 compound to trichostatin A ratio after 48 hrs by MTT assay. In kind it is functional.
The target in series [8] is Proto-oncogene tyrosine-protein kinase Src (Homo sapiens) (UniProt P12931). The series is described as follows: Inhibition of c-Src (unknown origin) at 10 uM.
The target of series [9] is Proto-oncogene tyrosine-protein kinase receptor Ret (Homo sapiens) (UniProt P07949). The series is described as follows: Inhibition of RET (unknown origin) at 10 uM.
For series [10], the target named is Epithelial discoidin domain-containing receptor 1 (Homo sapiens) (UniProt Q08345). The series is described as follows: Inhibition of DDR1 (unknown origin) at 10 uM.
Series [11] addresses Fibroblast growth factor receptor 3 (Homo sapiens) (UniProt P22607). The series is described as follows: Inhibition of FGFR3 (unknown origin) at 10 uM.
The target of series [12] is Receptor-type tyrosine-protein kinase FLT3 (Homo sapiens) (UniProt P36888). The series is described as follows: Inhibition of FLT3 (unknown origin) at 10 uM.
The target of series [13] is Serine/threonine-protein kinase B-raf (Homo sapiens) (UniProt P15056). The series is described as follows: Inhibition of BRAF (unknown origin) at 10 uM.
Series [14] has as its target Cyclin-dependent kinase 4/cyclin D1 (Homo sapiens) (UniProt P11802+P24385). The series is described as follows: Inhibition of CDK4/Cyclin D1 (unknown origin) at 10 uM. It is filed as protein-complex assay.
The target of series [15] is Angiopoietin-1 receptor (Homo sapiens) (UniProt Q02763). The series is described as follows: Inhibition of TIE2 (unknown origin) at 10 uM.
Series [16] addresses Serine/threonine-protein kinase pim-1 (Homo sapiens) (UniProt P11309). The series is described as follows: Inhibition of PIM1 (unknown origin) at 10 uM.

In brackets after ≈: the same amount, converted by molar mass. Activity calls are given as the source filed them. The calls are words filed in the database; no cut-off is given here.

Angiopoietin-1 receptor (Homo sapiens), sequence (Q02763 whole entry): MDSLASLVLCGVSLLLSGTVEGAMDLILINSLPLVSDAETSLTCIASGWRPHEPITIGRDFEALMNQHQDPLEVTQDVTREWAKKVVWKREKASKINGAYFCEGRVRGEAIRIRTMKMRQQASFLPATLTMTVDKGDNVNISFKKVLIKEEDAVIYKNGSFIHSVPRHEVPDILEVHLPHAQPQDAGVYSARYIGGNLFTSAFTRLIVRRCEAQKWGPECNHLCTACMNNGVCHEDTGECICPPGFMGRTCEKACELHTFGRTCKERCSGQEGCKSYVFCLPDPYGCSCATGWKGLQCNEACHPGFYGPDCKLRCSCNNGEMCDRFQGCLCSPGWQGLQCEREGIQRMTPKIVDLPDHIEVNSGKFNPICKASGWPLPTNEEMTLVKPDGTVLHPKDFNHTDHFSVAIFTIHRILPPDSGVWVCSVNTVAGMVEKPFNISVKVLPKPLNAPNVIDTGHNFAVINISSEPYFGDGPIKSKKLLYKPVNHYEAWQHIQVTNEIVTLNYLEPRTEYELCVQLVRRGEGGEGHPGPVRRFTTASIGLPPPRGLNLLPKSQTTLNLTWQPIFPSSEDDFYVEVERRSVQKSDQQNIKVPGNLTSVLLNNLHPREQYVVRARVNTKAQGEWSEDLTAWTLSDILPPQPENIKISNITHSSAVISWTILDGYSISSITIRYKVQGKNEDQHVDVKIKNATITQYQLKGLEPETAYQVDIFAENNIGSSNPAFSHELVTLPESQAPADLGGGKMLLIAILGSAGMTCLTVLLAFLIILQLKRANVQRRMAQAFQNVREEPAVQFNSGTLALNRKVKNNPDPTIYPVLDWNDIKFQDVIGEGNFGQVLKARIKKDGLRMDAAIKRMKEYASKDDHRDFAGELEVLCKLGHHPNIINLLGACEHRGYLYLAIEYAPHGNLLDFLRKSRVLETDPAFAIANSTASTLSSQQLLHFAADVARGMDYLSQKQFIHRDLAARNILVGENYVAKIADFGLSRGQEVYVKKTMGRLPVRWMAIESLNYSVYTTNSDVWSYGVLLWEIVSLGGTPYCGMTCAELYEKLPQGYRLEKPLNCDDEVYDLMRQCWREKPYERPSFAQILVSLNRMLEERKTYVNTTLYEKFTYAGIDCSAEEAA
Serine/threonine-protein kinase pim-1 (Homo sapiens), sequence (P11309 whole entry, looked up): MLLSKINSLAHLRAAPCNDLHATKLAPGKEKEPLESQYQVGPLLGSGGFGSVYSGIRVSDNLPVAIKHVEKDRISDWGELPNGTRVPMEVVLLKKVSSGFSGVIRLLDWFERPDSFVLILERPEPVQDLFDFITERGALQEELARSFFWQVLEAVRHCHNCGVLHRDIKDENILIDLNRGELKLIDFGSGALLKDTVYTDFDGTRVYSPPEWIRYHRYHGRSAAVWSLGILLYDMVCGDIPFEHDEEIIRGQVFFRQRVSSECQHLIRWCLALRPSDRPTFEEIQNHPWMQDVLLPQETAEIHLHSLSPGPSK
Fibroblast growth factor receptor 3 (Homo sapiens), sequence (P22607 23-806 limits assumed): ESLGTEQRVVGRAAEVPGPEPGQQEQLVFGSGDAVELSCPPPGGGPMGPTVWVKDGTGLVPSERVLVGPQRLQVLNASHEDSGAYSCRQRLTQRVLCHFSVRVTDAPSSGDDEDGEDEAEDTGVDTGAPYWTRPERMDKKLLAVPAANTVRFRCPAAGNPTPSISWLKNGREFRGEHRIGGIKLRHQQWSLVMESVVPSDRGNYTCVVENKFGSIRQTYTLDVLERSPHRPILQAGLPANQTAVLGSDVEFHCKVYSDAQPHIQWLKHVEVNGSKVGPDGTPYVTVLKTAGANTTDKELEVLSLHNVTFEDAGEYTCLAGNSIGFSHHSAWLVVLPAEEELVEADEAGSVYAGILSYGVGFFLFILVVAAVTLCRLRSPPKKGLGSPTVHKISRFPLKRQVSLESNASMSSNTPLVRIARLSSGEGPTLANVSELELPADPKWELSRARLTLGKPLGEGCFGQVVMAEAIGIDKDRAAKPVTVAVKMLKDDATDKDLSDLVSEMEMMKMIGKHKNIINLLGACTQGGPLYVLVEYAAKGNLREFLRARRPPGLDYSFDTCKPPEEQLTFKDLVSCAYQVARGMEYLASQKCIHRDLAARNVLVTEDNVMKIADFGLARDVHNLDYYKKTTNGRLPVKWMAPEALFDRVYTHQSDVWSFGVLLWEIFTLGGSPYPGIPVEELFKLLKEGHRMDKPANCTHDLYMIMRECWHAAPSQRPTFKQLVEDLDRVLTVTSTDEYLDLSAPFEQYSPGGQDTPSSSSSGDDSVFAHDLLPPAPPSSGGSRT
Receptor-type tyrosine-protein kinase FLT3 (Homo sapiens), sequence (P36888 whole entry): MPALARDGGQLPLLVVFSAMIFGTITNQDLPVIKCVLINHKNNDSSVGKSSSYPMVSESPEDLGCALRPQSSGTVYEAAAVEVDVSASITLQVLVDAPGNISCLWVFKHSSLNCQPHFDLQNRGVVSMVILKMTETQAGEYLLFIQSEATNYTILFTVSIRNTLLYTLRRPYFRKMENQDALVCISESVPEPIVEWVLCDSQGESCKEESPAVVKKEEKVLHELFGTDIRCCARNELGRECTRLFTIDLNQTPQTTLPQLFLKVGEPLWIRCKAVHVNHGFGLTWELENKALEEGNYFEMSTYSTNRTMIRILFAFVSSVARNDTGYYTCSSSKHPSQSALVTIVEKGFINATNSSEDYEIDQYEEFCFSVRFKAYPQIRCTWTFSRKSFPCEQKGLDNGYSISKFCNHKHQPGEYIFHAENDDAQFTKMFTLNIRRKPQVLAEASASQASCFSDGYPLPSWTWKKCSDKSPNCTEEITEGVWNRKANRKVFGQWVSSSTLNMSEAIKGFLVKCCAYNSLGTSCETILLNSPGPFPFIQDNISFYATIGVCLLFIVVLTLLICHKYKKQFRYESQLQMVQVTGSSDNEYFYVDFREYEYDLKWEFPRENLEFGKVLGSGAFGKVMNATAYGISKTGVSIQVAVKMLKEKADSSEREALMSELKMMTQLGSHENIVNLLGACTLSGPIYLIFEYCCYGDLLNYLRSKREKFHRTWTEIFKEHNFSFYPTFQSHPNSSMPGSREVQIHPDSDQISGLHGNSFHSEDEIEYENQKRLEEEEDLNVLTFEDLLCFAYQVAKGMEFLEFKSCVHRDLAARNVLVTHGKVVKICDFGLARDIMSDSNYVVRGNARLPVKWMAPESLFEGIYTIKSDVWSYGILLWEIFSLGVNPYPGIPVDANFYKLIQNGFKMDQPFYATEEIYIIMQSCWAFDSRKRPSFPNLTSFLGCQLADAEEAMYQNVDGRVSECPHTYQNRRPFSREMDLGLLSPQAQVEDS
Epithelial discoidin domain-containing receptor 1 (Homo sapiens), sequence (Q08345 whole entry, the tested form may be a part): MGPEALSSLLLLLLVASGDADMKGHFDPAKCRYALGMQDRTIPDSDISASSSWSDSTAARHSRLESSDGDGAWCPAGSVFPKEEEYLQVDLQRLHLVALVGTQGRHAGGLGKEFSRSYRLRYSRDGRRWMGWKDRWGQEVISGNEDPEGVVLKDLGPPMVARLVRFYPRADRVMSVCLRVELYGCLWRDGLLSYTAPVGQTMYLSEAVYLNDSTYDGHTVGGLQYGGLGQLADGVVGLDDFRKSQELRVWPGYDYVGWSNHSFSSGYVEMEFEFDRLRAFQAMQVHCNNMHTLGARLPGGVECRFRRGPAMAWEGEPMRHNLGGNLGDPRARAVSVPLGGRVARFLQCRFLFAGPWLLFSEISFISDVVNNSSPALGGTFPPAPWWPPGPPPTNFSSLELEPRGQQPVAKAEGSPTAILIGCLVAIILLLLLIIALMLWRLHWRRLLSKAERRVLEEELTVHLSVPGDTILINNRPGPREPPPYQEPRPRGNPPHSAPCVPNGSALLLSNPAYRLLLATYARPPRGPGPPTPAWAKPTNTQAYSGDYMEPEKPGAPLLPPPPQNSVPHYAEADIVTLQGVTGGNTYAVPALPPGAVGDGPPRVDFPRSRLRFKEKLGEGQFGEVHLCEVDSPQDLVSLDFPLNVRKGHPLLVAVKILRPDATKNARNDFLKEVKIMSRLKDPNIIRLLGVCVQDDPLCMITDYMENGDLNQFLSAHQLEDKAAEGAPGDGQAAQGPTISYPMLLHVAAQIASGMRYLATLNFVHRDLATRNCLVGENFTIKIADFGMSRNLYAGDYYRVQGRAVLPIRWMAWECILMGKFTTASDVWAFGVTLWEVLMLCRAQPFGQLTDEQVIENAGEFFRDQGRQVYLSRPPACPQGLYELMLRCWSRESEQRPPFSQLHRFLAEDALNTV
Aurora kinase B, sequence (Q96GD4 whole entry): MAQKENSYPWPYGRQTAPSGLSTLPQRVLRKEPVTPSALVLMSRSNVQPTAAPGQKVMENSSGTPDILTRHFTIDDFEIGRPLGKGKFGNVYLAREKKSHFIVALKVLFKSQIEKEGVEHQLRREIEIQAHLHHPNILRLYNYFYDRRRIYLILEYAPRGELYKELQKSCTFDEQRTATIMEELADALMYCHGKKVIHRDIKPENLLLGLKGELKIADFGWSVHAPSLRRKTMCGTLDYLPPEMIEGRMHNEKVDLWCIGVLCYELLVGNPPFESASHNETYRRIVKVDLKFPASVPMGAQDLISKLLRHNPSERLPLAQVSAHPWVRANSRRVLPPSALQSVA
Proto-oncogene tyrosine-protein kinase Src (Homo sapiens), sequence (P12931 2-536 limits assumed): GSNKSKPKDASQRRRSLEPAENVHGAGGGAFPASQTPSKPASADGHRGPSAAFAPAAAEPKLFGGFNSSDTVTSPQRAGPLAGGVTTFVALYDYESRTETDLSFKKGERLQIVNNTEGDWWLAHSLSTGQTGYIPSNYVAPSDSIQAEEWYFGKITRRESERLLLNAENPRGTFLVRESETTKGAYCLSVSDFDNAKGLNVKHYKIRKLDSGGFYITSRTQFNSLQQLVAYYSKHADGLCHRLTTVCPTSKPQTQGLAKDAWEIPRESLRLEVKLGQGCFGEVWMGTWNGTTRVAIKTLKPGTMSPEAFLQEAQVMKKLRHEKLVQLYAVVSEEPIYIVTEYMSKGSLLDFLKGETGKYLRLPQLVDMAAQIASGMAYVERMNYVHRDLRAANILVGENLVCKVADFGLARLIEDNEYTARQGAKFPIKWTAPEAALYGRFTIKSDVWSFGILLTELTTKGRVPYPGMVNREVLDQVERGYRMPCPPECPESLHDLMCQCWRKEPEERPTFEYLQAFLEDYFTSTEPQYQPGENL

Turning to `CNC(=O)Nc1sc2c(C(C)C)cc(NS(=O)(=O)c3cccs3)cc2c1C(N)=O`, the values for the IC50 in the series on HCT-116 [1], at Aurora kinase A and at Aurora kinase B were 290 nM, 32 nM and 29 nM, respectively. Besides, in the series with HCT-116 [2], the “Cytokinesis inhibition (active/inactive call)” value is “Active”. The solubility at 24 h in [3] was determined as 1.9 µM (≈ 0.86 µg/mL); in series [4], 1.8 µM (≈ 0.815 µg/mL). The CI in the series with HCT-116 [5] is reported as 1; in the series with HCT-116 [6], 0.136; in the series with HCT-116 [7], 0.755; with HT-29, 0.185. Also, the inhibition in series [8] came to 105%; in series [9] it was 98.4%; in series [10], 84.4%; in series [11] it was 81.6%; in series [12], 56.8%; in series [13], 53.5%. In addition, the inhibition in series [14] was 44.1%; in series [15] it was 35.7%; in series [16], 35.7%.

Usually IC50 stands for the concentration needed to halve the response being measured. The term solubility denotes how much of the substance goes into solution per volume. Higher therefore signals a readily soluble substance. What is called inhibition is the drop in the measured response relative to a control, in per cent.

Values taken from ChEMBL document CHEMBL4265887 (Bioorg Med Chem Lett, 2018).
